# Assays:
# [1] = biological target: T1, human Cystic Fibrosis Transmembrane Conductance Regulator (CFTR) harboring the ΔF508 mutation (Homo sapiens, UniProt P13569, DEL508-508); assay: H441 cell ΔF508-CFTR-HRP cell surface assay (Emax and EC50); format: cell-based; conditions: for Emax: NCI-H441, NA = Not active
# T1 construct: expressed in transfected cells; host or cells: H441 carcinoma line (G418-selected)
# Method in brief: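 H441 and 41o- bronchial epithelial cells expressing ΔF508-CFTR with an extracellular-loop-4 HRP tag were treated with a 15-point compound series (24.5–0.001 μM) for two nights, H441 at 27° C, 41o- at 37° C with 0.0005 mg/ml doxycycline. Surface HRP luminescence read; % of maximum VX809 signal and EC50 derived.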
# [2] = biological target: T2, CFTR-mediated transepithelial chloride transport in primary human bronchial epithelial cells from a ΔF508 homozygous CF donor (Homo sapiens, UniProt P13569, DEL508-508); assay: TECC24 recording of CFTR-mediated transepithelial chloride transport in CF-HBE cells (AUC fold over DMSO); format: cell-based; conditions: test agent 10 μM, 48 hours incubation, AUC of forskolin-stimulated IEQ relative to DMSO
# T2 construct: Primary human bronchial epithelial cells from a ΔF508 homozygous CF donor; host or cells: primary CF-HBE cells, ΔF508 homozygous donor
# T2 sequence (P13569 with tags, fused parts or gaps DEL508-508): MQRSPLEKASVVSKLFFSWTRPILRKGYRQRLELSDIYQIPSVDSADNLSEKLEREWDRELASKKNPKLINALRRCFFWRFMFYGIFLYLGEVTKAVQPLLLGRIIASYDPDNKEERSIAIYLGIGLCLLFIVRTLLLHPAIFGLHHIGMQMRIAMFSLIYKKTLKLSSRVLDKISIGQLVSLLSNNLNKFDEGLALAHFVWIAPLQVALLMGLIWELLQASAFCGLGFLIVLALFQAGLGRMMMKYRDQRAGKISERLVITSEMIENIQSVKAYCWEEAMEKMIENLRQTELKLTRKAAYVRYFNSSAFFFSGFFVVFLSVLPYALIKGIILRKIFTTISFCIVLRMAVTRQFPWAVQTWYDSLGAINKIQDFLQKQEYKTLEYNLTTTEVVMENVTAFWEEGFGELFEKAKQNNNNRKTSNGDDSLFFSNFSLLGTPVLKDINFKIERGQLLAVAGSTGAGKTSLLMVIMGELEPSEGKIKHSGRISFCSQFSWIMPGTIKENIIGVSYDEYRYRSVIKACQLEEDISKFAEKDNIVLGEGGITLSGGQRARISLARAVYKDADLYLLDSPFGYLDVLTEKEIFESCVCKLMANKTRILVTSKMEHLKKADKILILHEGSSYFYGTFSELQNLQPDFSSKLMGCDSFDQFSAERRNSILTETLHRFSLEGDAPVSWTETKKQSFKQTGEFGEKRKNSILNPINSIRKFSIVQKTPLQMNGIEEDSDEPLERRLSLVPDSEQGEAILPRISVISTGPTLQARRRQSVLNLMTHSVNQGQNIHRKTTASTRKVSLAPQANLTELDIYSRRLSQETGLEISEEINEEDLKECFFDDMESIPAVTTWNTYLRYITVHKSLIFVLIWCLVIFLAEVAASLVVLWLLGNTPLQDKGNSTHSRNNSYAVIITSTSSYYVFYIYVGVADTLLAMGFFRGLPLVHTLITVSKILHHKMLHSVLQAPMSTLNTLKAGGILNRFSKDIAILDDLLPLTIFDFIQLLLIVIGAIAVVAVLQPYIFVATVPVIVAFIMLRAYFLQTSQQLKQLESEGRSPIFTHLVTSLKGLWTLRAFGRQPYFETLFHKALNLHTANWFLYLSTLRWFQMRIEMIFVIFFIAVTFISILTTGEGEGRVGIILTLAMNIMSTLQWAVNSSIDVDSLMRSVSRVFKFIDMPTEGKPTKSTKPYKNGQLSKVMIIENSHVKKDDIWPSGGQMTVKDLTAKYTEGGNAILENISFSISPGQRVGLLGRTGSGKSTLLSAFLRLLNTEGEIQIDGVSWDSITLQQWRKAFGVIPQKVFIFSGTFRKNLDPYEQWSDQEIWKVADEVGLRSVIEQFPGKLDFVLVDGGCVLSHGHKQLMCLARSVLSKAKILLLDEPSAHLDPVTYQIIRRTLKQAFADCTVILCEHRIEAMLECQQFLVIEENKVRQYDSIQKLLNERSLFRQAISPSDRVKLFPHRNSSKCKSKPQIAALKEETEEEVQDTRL
# Method in brief: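 Primary ΔF508/ΔF508 CF-HBE cells on inserts exposed to test agent in IL-13-containing medium for 48 h at 36.5 °C. Current-clamp VT/TEER recording in pH 7.4 HEPES saline with benzamil 10 μM, forskolin 10 μM, then CFTRinh-172 20 μM. AUC of equivalent Cl⁻ current between forskolin and inhibitor, expressed as ratio over vehicle.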
# T1 sequence (P13569 with tags, fused parts or gaps DEL508-508): as above
SMILES,EC50 [1],Emax [1],TECC24 AUC fold over DMSO @10 μM [2]
"CC(C)(C)C[C@H](NC(=O)c1ccc2ccccc2c1OCc1ccc(C(F)(F)F)cc1)C(=O)O [Example 141, (S)-4,4-dimethyl-2-(1-((4-(trifluoromethyl)benzyl)oxy)-2-naphthamido)pentanoic Acid]",2300 nM,147%,A (“A” refers to AUC @10 uM >6)
"CCC(C)(C)[C@H](NC(=O)c1ccc2cc(C)ccc2c1OCc1ccc(C(F)(F)F)cc1)C(=O)O [Example 225, (2S)-3,3-dimethyl-2-[[6-methyl-1-[[4-(trifluoromethyl)phenyl]methoxy]naphthalene-2-carbonyl]amino]pentanoic Acid]",12200 nM,97%,A (“A” refers to AUC @10 uM >6)
"O=C(N[C@H](C(=O)O)C(c1ccccc1)c1ccccc1)c1ccc2ccccc2c1OCC1CCCCC1 [Example 199, (S)-2-(1-(cyclohexylmethoxy)-2-naphthamido)-3,3-diphenylpropanoic Acid]",500 nM,129%,C (“C” refers to AUC @10 uM <4)
"CC(C)(SCC1CC1(F)F)[C@H](NC(=O)c1ccc2ccccc2c1OCC1CCCCC1)C(=O)O (stereo partly drawn) [Example 165, (2R)-2-(1-(cyclohexylmethoxy)-2-naphthamido)-3-(((2,2-difluorocyclopropyl)methyl)thio)-3-methylbutanoic Acid]",3400 nM,113%,C (“C” refers to AUC @10 uM <4)
"O=C(N[C@H](C(=O)O)C1CCCC1)c1ccc2ccccc2c1OCc1ccc(C(F)(F)F)cc1 [Example 154, (S)-2-cyclopentyl-2-(1-((4-(trifluoromethyl)benzyl)oxy)-2-naphthamido)acetic Acid]",1900 nM,118%,A (“A” refers to AUC @10 uM >6)
"CCC(C)(C)[C@@H](NC(=O)c1ccc2ccc(C)cc2c1OCc1ccc(OC(F)(F)F)cc1)C(=O)O [Example 312, (R)-3,3-dimethyl-2-(7-methyl-1-((4-(trifluoromethoxy)benzyl)oxy)-2-naphthamido)pentanoic Acid]",2200 nM,127%,B (“B” refers to AUC @10 uM between 4-6)
"O=C(N[C@H](C(=O)O)C12CC(C(F)(F)F)(C1)C2)c1ccc2ccccc2c1OCc1ccc(C(F)(F)F)cc1 [Example 13, (S)-2-(1-((4-(trifluoromethyl)benzyl)oxy)-2-naphthamido)-2-(3-(trifluoromethyl)bicyclo[1.1.1]pentan-1-yl)acetic Acid]",1200 nM,81.3%,C (“C” refers to AUC @10 uM <4)
"CC1([C@H](NC(=O)c2ccc3cc(F)ccc3c2OCc2ccc(C(F)(F)F)cc2)C(=O)O)CCCCC1 [Example 40, (S)-2-(6-fluoro-1-((4-(trifluoromethyl)benzyl)oxy)-2-naphthamido)-2-(1-methylcyclohexyl)acetic Acid]",300 nM,100%,C (“C” refers to AUC @10 uM <4)
"CC(C)(C)[C@H](NC(=O)c1ccc2ccccc2c1OCc1ccc(C(F)(F)F)c(F)c1)C(=O)O [Example 25, (S)-2-(1-((3-fluoro-4-(trifluoromethyl)benzyl)oxy)-2-naphthamido)-3,3-dimethylbutanoic Acid]",500 nM,287%,C (“C” refers to AUC @10 uM <4)
"CC(C)(C)[C@H](NC(=O)c1ccc2ccccc2c1OC[C@H]1CC[C@@H](C(F)(F)F)CC1)C(=O)O [Example 26, (S)-3,3-dimethyl-2-(1-(((1s,4R)-4-(trifluoromethyl)cyclohexyl)methoxy)-2-naphthamido)butanoic Acid]",4600 nM,98.8%,C (“C” refers to AUC @10 uM <4)
"CC1(C(NC(=O)c2ccc3ccccc3c2OCc2ccc(C(F)(F)F)cc2)C(=O)O)CCCCC1 (centres unmarked) [Example 80, 2-(1-methylcyclohexyl)-2-(1-((4-(trifluoromethyl)benzyl)oxy)-2-naphthamido)acetic Acid]",400 nM,195%,C (“C” refers to AUC @10 uM <4)
CCC1([C@H](NC(=O)c2ccc3ccc(Cl)cc3c2OCc2ccc(C(F)(F)F)cc2)C(=O)O)CCCC1 [Example 258],–,264%,A (“A” refers to AUC @10 uM >6)
CC(C)(SC1CCCC1)[C@H](NC(=O)c1ccc2cc(F)ccc2c1OCc1ccc(SC(F)(F)F)cc1)C(=O)O [Example 172],500 nM,62.7%,C (“C” refers to AUC @10 uM <4)
"CC(C)(C)[C@H](NC(=O)c1ccc2cc(F)ccc2c1OCc1ccc(C(F)(F)F)cc1)C(=O)O [Example 27, (S)-2-(6-fluoro-1-((4-(trifluoromethyl)benzyl)oxy)-2-naphthamido)-3,3-dimethylbutanoic Acid]",600 nM,134%,B (“B” refers to AUC @10 uM between 4-6)
"CC1(C(NC(=O)c2ccc3ccccc3c2OCc2ccc(S(F)(F)(F)(F)F)cc2)C(=O)O)CCCCC1 (centres unmarked) [Example 48, 2-(1-methylcyclohexyl)-2-(1-((4-(pentafluoro-16-sulfanyl)benzyl)oxy)-2-naphthamido)acetic Acid]",700 nM,112%,C (“C” refers to AUC @10 uM <4)
"O=C(NC(C(=O)O)C1(C(F)(F)F)CC1)c1ccc2ccc(Cl)cc2c1OCc1ccc(OC(F)(F)F)cc1 (centres unmarked) [Example 238, 2-(7-chloro-1-((4-(trifluoromethoxy)benzyl)oxy)-2-naphthamido)-2-(1-(trifluoromethyl)cyclopropyl)acetic Acid]",800 nM,143%,C (“C” refers to AUC @10 uM <4)
"CC(C)(C)[C@H](NC(=O)c1ccc2ccc(C(F)F)cc2c1OCc1ccc(C(F)(F)F)cc1)C(=O)O [Example 244, (2S)-2-[[7-(difluoromethyl)-1-[[4-(trifluoromethyl)phenyl]methoxy]naphthalene-2-carbonyl]amino]-3,3-dimethyl-butanoic Acid]",100 nM,365%,A (“A” refers to AUC @10 uM >6)
"CCC(C)(C)[C@H](NC(=O)c1ccc2ccc(C(F)(F)F)cc2c1OCc1ccc(OC(F)(F)F)cc1)C(=O)O [Example 296, (S)-3,3-dimethyl-2-(1-((4-(trifluoromethoxy)benzyl)oxy)-7-(trifluoromethyl)-2-naphthamido)pentanoic Acid]",200 nM,186%,A (“A” refers to AUC @10 uM >6)
"CC1([C@H](NC(=O)c2ccc3ccc(Cl)cc3c2OCc2ccc(C(F)(F)F)cc2)C(=O)O)CCCC1 [Example 302, (S)-2-(7-chloro-1-((4-(trifluoromethyl)benzyl)oxy)-2-naphthamido)-2-(1-methylcyclopentyl)acetic Acid]",100 nM,248%,A (“A” refers to AUC @10 uM >6)
"CC(C)(C)[C@H](NC(=O)c1ccc2cc(F)ccc2c1OCc1ccc(SC(F)(F)F)cc1)C(=O)O [Example 75, (S)-2-(6-fluoro-1-((4-((trifluoromethyl)thio)benzyl)oxy)-2-naphthamido)-3,3-dimethylbutanoic Acid]",700 nM,94.2%,B (“B” refers to AUC @10 uM between 4-6)
"CC(C)(C)[C@H](NC(=O)c1ccc2cc(O)ccc2c1OCc1ccc(C(F)(F)F)cc1)C(=O)O [Example 59, (S)-2-(6-hydroxy-1-((4-(trifluoromethyl)benzyl)oxy)-2-naphthamido)-3,3-dimethylbutanoic Acid]",1900 nM,108%,C (“C” refers to AUC @10 uM <4)
"C=CC(C)(C)C(NC(=O)c1ccc2ccccc2c1OCc1ccc(C(F)(F)F)cc1)C(=O)O (centres unmarked) [Example 223, 3,3-dimethyl-2-[[1-[[4-(trifluoromethyl)phenyl]methoxy]naphthalene-2-carbonyl]amino]pent-4-enoic Acid]",800 nM,112%,B (“B” refers to AUC @10 uM between 4-6)
"CC(C)(C)[C@H](NC(=O)c1ccc2ccccc2c1OCc1ccc([N+](=O)[O-])cc1)C(=O)O [Example 231, (2S)-3,3-dimethyl-2-[[1-[(4-nitrophenyl)methoxy]naphthalene-2-carbonyl]amino]butanoic Acid]",7800 nM,70.1%,C (“C” refers to AUC @10 uM <4)
"O=C(N[C@@H](Cc1ccc2c(c1)OCO2)C(=O)O)c1ccc2ccccc2c1OCc1ccc(C(F)(F)F)cc1 [Example 106, (S)-3-(benzo[d][1,3]dioxol-5-yl)-2-(1-((4-(trifluoromethyl)benzyl)oxy)-2-naphthamido)propanoic Acid]",10400 nM,82.1%,C (“C” refers to AUC @10 uM <4)
"CC(C)(C)C[C@H](NC(=O)c1ccc2ccccc2c1OCc1ccc(SC(F)(F)F)cc1)C(=O)O [Example 115, (S)-4,4-dimethyl-2-(1-((4-((trifluoromethyl)thio)benzyl)oxy)-2-naphthamido)pentanoic Acid]",1100 nM,84%,C (“C” refers to AUC @10 uM <4)
